{
  "source": "patent US20220280578A1",
  "about": "“METHOD FOR TREATING ALZHEIMER'S DISEASE BY REGULATING INTESTINAL MICROORGANISMS” (SHANGHAI GREEN VALLEY PHARMACEUTICAL CO., LTD., priority 2019, published 2022)",
  "key": {"naive CD4+ T cells": {"test_system": "naive CD4+ T cells", "test": "In vitro differentiation and proliferation induced by phenylalanine and isoleucine", "type": "cell-based, mouse", "conditions": "amino acid added directly to naive CD4+ T cell culture; for Th1 cell proliferation: CellTrace", "protocol": "In Vitro differentiation and proliferation induced by phenylalanine and isoleucine. Naive CD4^+ T cells were separated from the splenocytes of 8-month-old C57BL/6 female mice using the Naive CD4^+ T cell Isolation Kit (Stem Cell, #19765), and the cells were stained with CellTrace (Thermo Fisher, #C34557). A total of 1×10^5 cells/well in 0.2 mL of RPMI-1640 medium were plated in 96-well plates, and the culture medium was supplemented with cytokines or blocking antibodies. Th0: 10 ng/mL mIL-2; Th1:10 ng/mL mIL-2, 5000 ng/mL 11B11. Phenylalanine (final concentration, 2 mmol/L), isoleucine (final concentration, 2 mmol/L) and OM1 (final concentration, 100 μg/mL) were added into the indicated wells, respectively. After incubation at 37° C. in 5% CO2 for 5 days, cells were acquired on a BD Fortessa cytometer, and data were analyzed using FlowJo software."}, "WT mice (C57)": {"test_system": "WT mice (C57)", "test": "Intraperitoneal injection of phenylalanine and isoleucine, blood Th1 cells", "type": "in vivo, mouse", "conditions": "intraperitoneal injection 50 mg/kg for 4 days"}, "SLC7A5": {"molecular_target": "T1, SLC7A5 (Mus musculus, UniProt Q9Z127)", "T1 construct": "endogenous in cells; host or cells: Primary naive CD4+ T cells from splenocytes of C57BL/6 mice, used as Th0 cells and IL-12-induced Th1 cells", "T1 sequence (Q9Z127 whole entry)": "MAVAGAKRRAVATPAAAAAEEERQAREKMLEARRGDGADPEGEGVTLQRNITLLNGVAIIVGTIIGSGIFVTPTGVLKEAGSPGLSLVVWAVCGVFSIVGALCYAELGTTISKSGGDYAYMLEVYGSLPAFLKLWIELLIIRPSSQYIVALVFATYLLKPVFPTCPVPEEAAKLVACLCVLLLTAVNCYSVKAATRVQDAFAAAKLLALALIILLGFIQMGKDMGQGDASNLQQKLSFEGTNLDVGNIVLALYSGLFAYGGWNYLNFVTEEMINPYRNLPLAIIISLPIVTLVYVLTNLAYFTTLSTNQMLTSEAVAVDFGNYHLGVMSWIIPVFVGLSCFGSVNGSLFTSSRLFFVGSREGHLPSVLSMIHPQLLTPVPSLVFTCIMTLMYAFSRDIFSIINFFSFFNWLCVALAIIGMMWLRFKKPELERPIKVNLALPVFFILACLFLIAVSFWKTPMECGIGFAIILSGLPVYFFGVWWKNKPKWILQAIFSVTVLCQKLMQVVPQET", "T1 sequence (P10852 whole entry partner)": "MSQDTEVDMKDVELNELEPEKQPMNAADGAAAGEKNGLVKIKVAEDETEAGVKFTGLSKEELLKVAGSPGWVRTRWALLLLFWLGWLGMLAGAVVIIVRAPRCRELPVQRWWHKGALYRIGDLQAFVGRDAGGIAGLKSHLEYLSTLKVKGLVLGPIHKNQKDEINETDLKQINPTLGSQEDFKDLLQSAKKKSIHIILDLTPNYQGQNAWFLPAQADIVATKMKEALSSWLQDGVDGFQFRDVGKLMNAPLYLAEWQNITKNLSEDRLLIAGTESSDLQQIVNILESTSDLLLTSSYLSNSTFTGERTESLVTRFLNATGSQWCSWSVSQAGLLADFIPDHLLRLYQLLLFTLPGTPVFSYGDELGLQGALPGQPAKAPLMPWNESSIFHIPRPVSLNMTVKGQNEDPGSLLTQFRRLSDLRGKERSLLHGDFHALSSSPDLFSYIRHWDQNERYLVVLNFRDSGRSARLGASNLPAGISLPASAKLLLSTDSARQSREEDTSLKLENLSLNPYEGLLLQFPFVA", "test": "Uptake of 13C-labelled phenylalanine by CD4+ T cells", "type": "cell-based", "conditions": "0.5 h incubation", "protocol": "Uptake of phenylalanine. Naive CD4^+ T cells were separated from the is splenocytes of 8-month-old C57BL/6 female mice using the Naive CD4^+ T cell Isolation Kit (Stem Cell, Cat No. 19765) and were induced to Th1 differentiation by 20 ng/mL IL-12. After 3 days, a total of 5×10^5 cells/well Th1 cells and Th0 cells in 0.5 mL of RPMI-1640 medium were plated into 48-well plates. ^13C-labelled phenylalanine and 5 mM amino transporter inhibitor BCH were added into indicated wells. After 0.5 h, cells were collected and washed twice with ice-cold D-PBS. 50 μL deionized water was added and cells were lysed through freezing and thawing twice at −80° C. The cell lysate was centrifuged at 12000×g for 10 min and ^13C-labelled phenylalanine in the supernatant was analyzed by Mass spectrometry."}, "5XFAD mice": {"test_system": "5XFAD mice", "test": "JPH 203 in 5XFAD mice, Th1 cells in the brain by flow cytometry", "type": "in vivo, mouse", "conditions": "6-month-old 5XFAD mice, 50 mg/kg intraperitoneal every day for one month, vs vehicle", "from_the_text": "Flow cytometry sample preparation and analysis. Mice were anesthetized, blood samples were collected into EDTA-containing tubes, and red blood cells were removed using 1×red blood lysis buffer. Before tissue is collection, the brains were perfused with ice-cold PBS to avoid sampling the circulating blood immune cells, and the brains were removed, chopped into pieces and dissected according to the introduction of the Adult Brain Dissociation Kit (Miltenyi, Cat No. 130-107-677) using the gentleMACS dissociator (Miltenyi Biotec). The brain homogenate was filtered through a 70-μm cell strainer and centrifuged at 300×g for 5 min at 4° C. […] All samples were counted and adjusted to a density of 2-3 ×10^6/100 μL, labeled with a Live/Dead kit for 30 min, and then centrifuged at 500×g for 3 min at 4° C. […] Relevant negative control, Fluorescence Minus One (FMO) control and each fluorescence compensation sample were used to adjust fluorescence compensation and identify the populations of interest. Cells were acquired on a BD Aria III cytometer, and data were analyzed using FlowJo software.\nAmino acids could be taken by immune cells through specific transporters. […] One month after the administration, the mice were euthanized, and the proportion of pro-inflammatory Th 1 cells in the brains of the mice in the control group and the JPH 203 treatment group was analyzed by flow cytometry. […]"}},
  "note": "“Also recorded” adds a separate entry of the source.",
  "data": [
    {"smiles": "CC[C@H](C)[C@H](N)C(=O)O", "note": "[isoleucine]", "values": [
      {"measurement": "Th0 cell differentiation into Th1 cells", "setting": "naive CD4+ T cells", "value": "increased"},
      {"measurement": "Th1 cell proliferation", "setting": "naive CD4+ T cells", "value": "increased"},
      {"measurement": "Th1 cell count in the blood", "setting": "WT mice (C57)", "value": "increased significantly"}
    ]},
    {"smiles": "N[C@@H](Cc1ccccc1)C(=O)O", "note": "[phenylalanine]", "values": [
      {"measurement": "Th0 cell differentiation into Th1 cells", "setting": "naive CD4+ T cells", "value": "increased"},
      {"measurement": "Th1 cell proliferation", "setting": "naive CD4+ T cells", "value": "increased"},
      {"measurement": "Th1 cell count in the blood", "setting": "WT mice (C57)", "value": "increased significantly"}
    ]},
    {"smiles": "Nc1cc(COc2c(Cl)cc(C[C@H](N)C(=O)O)cc2Cl)c2oc(-c3ccccc3)nc2c1", "note": "[JPH203]", "values": [
      {"measurement": "uptake of 13C-labelled phenylalanine by CD4+ T cells", "setting": "SLC7A5", "value": "blocked"},
      {"measurement": "proportion of pro-inflammatory Th1 cells in the mouse brain", "setting": "5XFAD mice; 50 mg/kg", "value": "effectively inhibits; also recorded: significantly downregulated"},
      {"measurement": "proportion of pro-inflammatory Th1 cells in the mouse brain", "setting": "5XFAD mice; listed as JPH 203, 50 mg/kg", "value": "significantly reduces"}
    ]}
  ]
}
